Measured values: patent US11773078B2, “Furin inhibitors” (Glaxosmithkline Intellectual Property Development Limited, priority 2018, dated 2023)

How the values were obtained:
[1] = target: T1, Furin (108-574-Tev-Flag-His) enzyme (Homo sapiens, UniProt P09958); test: Furin enzyme assay; type: biochemical
T1 construct: Furin (108-574-Tev-Flag-His) enzyme was expressed and purified from CHO cells; TEV cleavage site (C); FLAG (C); His (C); made in house; host or cells: CHO cells
Method in brief: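 Compounds ran as 11-point threefold dilutions (0.00017–10 μM final) against 40 pM furin, purified from CHO cells, for 2 h at room temperature. Buffer: 100 mM HEPES pH7.5 with 1 mM CaCl2 and 0.005% Triton X-100. Envision readout. Four-parameter curve gives pXC50.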

[2] = target: T2, furin (endogenous protease) in U20S cells (Homo sapiens, UniProt P09958); test: Furin cell-based assay (image-based, Golgi-targeted GFP with BMP10 furin/PCSK cleavage site); settings: 24-hour incubation, read-out: furin golgi cell pXC50 (converted);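 further: Read-out is mean GFP fluorescence of Golgi puncta per cell by high-content imaging, retained when furin inhibited, over an eleven-point 0.00017–10 µM series, four-parameter fit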
T2 construct: the endogenous protease cleaves GFP; endogenous in cells; host or cells: U2OS cells transduced with a BacMam reporter
T2 sequence (P09958 108-794): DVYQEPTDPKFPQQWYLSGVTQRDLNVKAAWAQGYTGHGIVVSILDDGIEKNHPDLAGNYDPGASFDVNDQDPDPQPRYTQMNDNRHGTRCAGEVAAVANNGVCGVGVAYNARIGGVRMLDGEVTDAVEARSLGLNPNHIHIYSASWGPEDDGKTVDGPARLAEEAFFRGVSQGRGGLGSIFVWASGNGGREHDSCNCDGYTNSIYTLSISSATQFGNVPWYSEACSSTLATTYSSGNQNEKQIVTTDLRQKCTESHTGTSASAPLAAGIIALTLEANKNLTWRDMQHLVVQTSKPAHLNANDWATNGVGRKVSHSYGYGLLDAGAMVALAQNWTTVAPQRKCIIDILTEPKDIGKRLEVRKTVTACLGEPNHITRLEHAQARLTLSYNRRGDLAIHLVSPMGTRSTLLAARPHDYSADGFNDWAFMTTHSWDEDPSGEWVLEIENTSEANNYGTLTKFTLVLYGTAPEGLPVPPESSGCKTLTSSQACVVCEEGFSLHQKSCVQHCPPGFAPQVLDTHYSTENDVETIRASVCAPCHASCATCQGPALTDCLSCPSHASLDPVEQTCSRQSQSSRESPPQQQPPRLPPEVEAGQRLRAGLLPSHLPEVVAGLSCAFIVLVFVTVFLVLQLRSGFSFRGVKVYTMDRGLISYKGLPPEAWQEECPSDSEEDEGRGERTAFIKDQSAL

T1 sequence (P09958 108-574): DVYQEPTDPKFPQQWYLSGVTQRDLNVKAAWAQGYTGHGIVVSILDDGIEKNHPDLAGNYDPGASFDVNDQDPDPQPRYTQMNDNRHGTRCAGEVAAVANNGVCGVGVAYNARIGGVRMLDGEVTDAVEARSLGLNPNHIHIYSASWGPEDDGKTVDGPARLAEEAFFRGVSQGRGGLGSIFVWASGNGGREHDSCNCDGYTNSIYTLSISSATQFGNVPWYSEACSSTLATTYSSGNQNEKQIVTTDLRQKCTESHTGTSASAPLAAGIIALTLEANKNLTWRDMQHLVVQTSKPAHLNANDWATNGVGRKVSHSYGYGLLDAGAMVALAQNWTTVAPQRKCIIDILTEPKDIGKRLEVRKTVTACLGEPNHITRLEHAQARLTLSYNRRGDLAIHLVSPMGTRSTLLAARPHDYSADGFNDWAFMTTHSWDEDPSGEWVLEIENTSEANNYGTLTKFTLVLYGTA

Compound	furin enzyme pIC50 [1]	EC50 [2] [nM]	IC50 ([1]; read-out: furin enzyme pIC50 (converted)) [nM]
CC(CC(=O)O)C1CN(Cc2cc(Oc3cnc(N4CCN(C)CC4)nc3)nc(-c3cc(Cl)cc(Cl)c3)c2)C1 (centres unmarked) [Example 127, 3-(1-((2-(3,5-dichlorophenyl)-6-((2-(4-methylpiperazin-1-yl)pyrimidin-5-yl)oxy)pyridin-4-yl)methyl)azetidin-3-yl)butanoic acid]	8.8	501	
CN1CCN(c2ncc(Oc3cc(CN4CCC(OCC(=O)O)C4)cc(-c4cc(Cl)cc(Cl)c4)n3)cn2)CC1 (centres unmarked) [Example 128, 2-((1-((2-(3,5-dichlorophenyl)-6-((2-(4-methylpiperazin-1-yl)pyrimidin-5-yl)oxy)pyridin-4-yl)methyl)pyrrolidin-3-yl)oxy)acetic acid]	7.9	631	
CN1CCN(c2ncc(Oc3cc(CN4CC5CC(CC(=O)O)CC5C4)cc(-c4cc(Cl)cc(Cl)c4)n3)cn2)CC1 (centres unmarked) [Example 129, 2-(2-((2-(3,5-dichlorophenyl)-6-((2-(4-methylpiperazin-1-yl)pyrimidin-5-yl)oxy)pyridin-4-yl)methyl)octahydrocyclopenta[c]pyrrol-5-yl)acetic acid]	8.2	79.4	
CN1CCN(c2ncc(Oc3cc(CN4CCC(CCC(=O)O)CC4)cc(-c4cc(Cl)cc(Cl)c4)n3)cn2)CC1 [Example 130, 3-(1-((2-(3,5-dichlorophenyl)-6-((2-(4-methylpiperazin-1-yl)pyrimidin-5-yl)oxy)pyridin-4-yl)methyl)piperidin-4-yl)propanoic acid]	8.7	7.94	
CC(CC1CCN(Cc2cc(Oc3cnc(N4CCN(C)CC4)nc3)nc(-c3cc(Cl)cc(Cl)c3)c2)CC1)C(=O)O (centres unmarked) [Example 131, 3-(1-((2-(3,5-dichlorophenyl)-6-((2-(4-methylpiperazin-1-yl)pyrimidin-5-yl)oxy)pyridin-4-yl)methyl)piperidin-4-yl)-2-methylpropanoic acid]	8.7	31.6	
O=C(O)CC1CCN(Cc2cc(Oc3cnc(N4CCCNCC4)nc3)nc(-c3cc(Cl)cc(Cl)c3)c2)CC1 [Example 132, 2-(1-((2-((2-(1,4-diazepan-1-yl)pyrimidin-5-yl)oxy)-6-(3,5-dichlorophenyl)pyridin-4-yl)methyl)piperidin-4-yl)acetic acid]	8.8	63.1	
CN1CC2CN(c3ncc(Oc4cc(CN5CCC(CC(=O)O)CC5)cc(-c5cc(Cl)cc(Cl)c5)n4)cn3)CC2C1 (centres unmarked) [Example 133, 2-(1-((2-(3,5-dichlorophenyl)-6-((2-(5-methylhexahydropyrrolo[3,4-c]pyrrol-2(1H)-yl)pyrimidin-5-yl)oxy)pyridin-4-yl)methyl)piperidin-4-yl)acetic acid]	8.3	39.8	
C[C@@H](CC1CCN(Cc2cc(Oc3cnc(N4CCN(C)CC4)nc3)nc(-c3cc(Cl)cc(Cl)c3)c2)CC1)C(=O)O [Example 134]	9.5	25.1	
CN1CCN(c2ncc(Oc3cc(CN4CCC5(CC4)CN(C(=O)CO)C5)cc(-c4cc(Cl)cc(Cl)c4)n3)cn2)CC1 [Example 135, 1-(7-((2-(3,5-dichlorophenyl)-6-((2-(4-methylpiperazin-1-yl)pyrimidin-5-yl)oxy)pyridin-4-yl)methyl)-2,7-diazaspiro[3.5]nonan-2-yl)-2-hydroxyethanone]	9.2	10	
CN1CCN(c2ccc(Oc3cc(CN4CC[C@@H]5[C@H](CC4)[C@H]5C(=O)O)cc(-c4cc(Cl)cc(Cl)c4)n3)cn2)CC1 [Example 136, (1R,7S,8r)-4-((2-(3,5-dichlorophenyl)-6-((6-(4-methylpiperazin-1-yl)pyridin-3-yl)oxy)pyridin-4-yl)methyl)-4-azabicyclo[5.1.0]octane-8-carboxylic acid]	9.8	15.8	
CC(O)CC1CCN(Cc2cc(Oc3cnc(N4CCN(C)CC4)nc3)nc(-c3cc(Cl)cc(Cl)c3)c2)CC1 (centres unmarked) [Example 138, 1-(1-((2-(3,5-dichlorophenyl)-6-((2-(4-methylpiperazin-1-yl)pyrimidin-5-yl)oxy)pyridin-4-yl)methyl)piperidin-4-yl)propan-2-ol]	9.1	7.94	
CN1CCN(c2ncc(Oc3cc(CN4CCC(CC(O)C(=O)O)CC4)cc(-c4cc(Cl)cc(Cl)c4)n3)cn2)CC1 (centres unmarked) [Example 139, 3-(1-((2-(3,5-dichlorophenyl)-6-((2-(4-methylpiperazin-1-yl)pyrimidin-5-yl)oxy)pyridin-4-yl)methyl)piperidin-4-yl)-2-hydroxypropanoic acid]	9.3	10	
CN1CCCN(c2ncc(Oc3cc(CN4CCC(OCC(=O)O)CC4)cc(-c4cc(Cl)cc(Cl)c4)n3)cn2)CC1 [Example 140, 2-((1-((2-(3,5-dichlorophenyl)-6-((2-(4-methyl-1,4-diazepan-1-yl)pyrimidin-5-yl)oxy)pyridin-4-yl)methyl)piperidin-4-yl)oxy)acetic acid]	8.8	7.94	
CN1CCN(c2ccc(Oc3cc(CN4CCC5(CC4)CNC(=O)OC5)cc(-c4cc(Cl)cc(Cl)c4)n3)cn2)CC1 [Example 141, 9-((2-(3,5-dichlorophenyl)-6-((6-(4-methylpiperazin-1-yl)pyridin-3-yl)oxy)pyridin-4-yl)methyl)-2-oxa-4,9-diazaspiro[5.5]undecan-3-one]	8.6	5.01	
CN1CCN(c2ncc(Oc3cc(CN4CCC(CC(N)=O)CC4)cc(-c4cc(Cl)cc(Cl)c4)n3)cn2)CC1 [Example 142, 2-(1-((2-(3,5-dichlorophenyl)-6-((2-(4-methylpiperazin-1-yl)pyrimidin-5-yl)oxy)pyridin-4-yl)methyl)piperidin-4-yl)acetamide]	8.8	6.31	
CN1CCN(c2ncc(Oc3cc(CN4CCC(OC5(C(=O)O)CC5)CC4)cc(-c4cc(Cl)cc(Cl)c4)n3)cn2)CC1 [Example 143, 1-((1-((2-(3,5-dichlorophenyl)-6-((2-(4-methylpiperazin-1-yl)pyrimidin-5-yl)oxy)pyridin-4-yl)methyl)piperidin-4-yl)oxy)cyclopropanecarboxylic acid]	8.4	20	
COC1CN(C)CCN(c2ncc(Oc3cc(CN4CCC(CC(=O)O)CC4)cc(-c4cc(Cl)cc(Cl)c4)n3)cn2)C1 (centres unmarked) [Example 144, 2-(1-((2-(3,5-dichlorophenyl)-6-((2-(6-methoxy-4-methyl-1,4-diazepan-1-yl)pyrimidin-5-yl)oxy)pyridin-4-yl)methyl)piperidin-4-yl)acetic acid]	8.5	7.94	
CC(=O)NCC1CCN(Cc2cc(Oc3ccc(N4CCN(C)CC(F)C4)nc3)nc(-c3cc(Cl)cc(Cl)c3)c2)CC1 (centres unmarked) [Example 145, N-((1-((2-(3,5-dichlorophenyl)-6-((6-(6-fluoro-4-methyl-1,4-diazepan-1-yl)pyridin-3-yl)oxy)pyridin-4-yl)methyl)piperidin-4-yl)methyl)acetamide]	8.9	2	
CN1CCN(c2ncc(Oc3cc(CN4CCC(CC(=O)O)CC4)cc(-c4cc(Cl)cc(Cl)c4)n3)cn2)CC(C)(O)C1 (centres unmarked) [Example 146, 2-(1-((2-(3,5-dichlorophenyl)-6-((2-(6-hydroxy-4,6-dimethyl-1,4-diazepan-1-yl)pyrimidin-5-yl)oxy)pyridin-4-yl)methyl)piperidin-4-yl)acetic acid]	8.5	15.8	
CN1CCN(c2ncc(Oc3cc(CN4CCC(CC(=O)O)CC4)cc(-c4cc(Cl)cc(Cl)c4)n3)cn2)CC(F)C1 (centres unmarked) [Example 147, 2-(1-((2-(3,5-dichlorophenyl)-6-((2-(6-fluoro-4-methyl-1,4-diazepan-1-yl)pyrimidin-5-yl)oxy)pyridin-4-yl)methyl)piperidin-4-yl)acetic acid]		31.6	0.631
Cc1nc(N2CCN(C)CC2)ncc1Oc1cc(CN2CCC(CC(=O)O)CC2)cc(-c2cc(Cl)cc(Cl)c2)n1 [Example 148, 2-(1-((2-(3,5-dichlorophenyl)-6-((4-methyl-2-(4-methylpiperazin-1-yl)pyrimidin-5-yl)oxy)pyridin-4-yl)methyl)piperidin-4-yl)acetic acid]	8.3	63.1	
Cc1nc(N2CCN(C)CC2)ccc1Oc1cc(CN2CCC(CC(=O)O)CC2)cc(-c2cc(Cl)cc(Cl)c2)n1 [Example 149, 2-(1-((2-(3,5-dichlorophenyl)-6-((2-methyl-6-(4-methylpiperazin-1-yl)pyridin-3-yl)oxy)pyridin-4-yl)methyl)piperidin-4-yl)acetic acid]	8.3	79.4	
CN1CCN(c2ccc(Oc3cc(CN4CCC(CC(=O)O)CC4)cc(-c4cc(Cl)cc(Cl)c4)n3)cc2)CC1 [Example 150, 2-(1-((2-(3,5-dichlorophenyl)-6-(4-(4-methylpiperazin-1-yl)phenoxy)pyridin-4-yl)methyl)piperidin-4-yl)acetic acid]	8.2	63.1	
CN1CCN(c2ncc(Oc3cc(CN4CCC(CC(=O)O)CC4)cc(-c4cc(Cl)cc(Cl)c4)n3)cc2F)CC1 [Example 151, 2-(1-((2-(3,5-dichlorophenyl)-6-((5-fluoro-6-(4-methylpiperazin-1-yl)pyridin-3-yl)oxy)pyridin-4-yl)methyl)piperidin-4-yl)acetic acid]	8.2	100	
CN1CCN(c2ncc(Oc3cc(CN4CCO[C@H](CCO)CC4)cc(-c4cc(Cl)cc(Cl)c4)n3)cn2)CC1 [Example 153, (S)-2-(4-((2-(3,5-dichlorophenyl)-6-((2-(4-methylpiperazin-1-yl)pyrimidin-5-yl)oxy)pyridin-4-yl)methyl)-1,4-oxazepan-7-yl)ethanol]	7.9	15.8	
